This is an account of results in PMC11589570, “Critical assessment of LC3/GABARAP ligands used for degrader development and ligandability of LC3/GABARAP binding pockets” (Nature Communications, 2024).

For test [1], the target named is T1, NanoLuc-fusion full-length LC3A (Homo sapiens, UniProt Q9H492).
T1 construct: a fluorescent donor (in this case full length LC3A and LC3B); expressed in transfected cells; host or cells: HEK293T (ATCC; CRL-11268)
Nature of the test: NanoBRET cellular target engagement assay in HEK293T cells. The format is cell-based. The method, then:
(§1) NanoBRET cellular target engagement assay: Constructs contained the cDNA of full-length LC3A and LC3B cloned in frame with an N-terminal NanoLuc-fusion. Plasmids were transfected into HEK293T (ATCC; CRL-11268) cells using FuGENE HD (Promega, E2312) and proteins were allowed to express for 20 h. 10O5 and 8F20-based tracers were titrated to the protein as depicted in Supplementary Fig. 4d. For competition experiments, 1 µM of the tracers was pipetted into white 384-well plates (Greiner 781 207) using an Echo 550 acoustic dispenser (Labcyte) containing LC3A/LC3B expressing transfected cells at a density of 2.5 × 10^5 cells/mL in Opti-MEM without phenol red (Life Technologies). The system was allowed to equilibrate for 2 h at 37 °C and 5% CO2 prior to BRET measurements. To measure BRET, NanoBRET NanoGlo Substrate + Extracellular NanoLuc Inhibitor (Promega, N2540) was added as per the manufacturer’s protocol, and filtered luminescence was measured on a PHERAstar plate reader (BMG Labtech) equipped with a luminescence filter pair (450 nm BP filter (donor) and 610 nm LP filter (acceptor)). Competitive displacement data were then plotted using GraphPad Prism 9.3 software using a normalized 3-parameter curve fit. A detailed step-by-step protocol for this assay is described in Schwalm..
For orientation: Bioluminescence resonance energy transfer reports proximity on the nanometre scale.

For test [2], the target named is T2, NanoLuc-fusion full-length LC3B (Homo sapiens, UniProt Q9GZQ8).
T2 construct: a fluorescent donor (in this case full length LC3A and LC3B); expressed in transfected cells; host or cells: HEK293T (ATCC; CRL-11268)
The test is described as above. In kind it is cell-based. The method, then:
as §1

The target in another test is LC3A (Homo sapiens, UniProt Q9H492). Description: FP assay with 10O5- and 8F20-based dye-linked tracers 16 and 17. As to conditions: LC3A.
The target in a further test is LC3B (Homo sapiens, UniProt Q9GZQ8). Described as above. To be noted: LC3B.
[3] abbreviates: 0.05% Tween20 supplemented buffer.

In the case of `Cc1ccc(C(=O)N(CCCNC(=O)CCOCCOCCOCCNC(=O)CCc2ccc3n2[B-](F)(F)[N+]2=C(c4ccc[nH]4)C=CC2=C3)[C@@H](c2nc3cc(Cl)ccc3c(=O)n2Cc2ccccc2)C(C)C)cc1` [compound 17, (R)-N-(1-(3-benzyl-7-chloro-4-oxo-3,4-dihydroquinazolin-2-yl)−2-methylpropyl)-N-(1-(5,5-difluoro-7-(1H-pyrrol-2-yl)−5H−5l4,6l4-dipyrrolo[1,2-c:2’,1’-f][1,3,2]diazaborinin-3-yl)−3,16-dioxo-7,10,13-trioxa-4,17-diazaicosan-20-yl)−4-methylbenzamide], the “NanoBRET signal / tracer displacement” value is recorded as “no BRET signal” in test [1] (LC3A, 1 µM tracer, compound 4 for tracer 16, compound 3 for tracer 17) and “no BRET signal” in test [2] (LC3B, 1 µM tracer, compound 4 for tracer 16, compound 3 for tracer 17). Moreover, the “maximum BRET increase in tracer titration” value in test [1] (NanoLuciferase-tagged LC3A) and in test [2] (NanoLuciferase-tagged LC3B) was ~ 1.3 fold in each case. Further, the “tracer binding in repeated protein titration” value at LC3A (setting [3]) and on LC3B (setting [3]) was “completely abolishing the putative binding” each time. Further, the “tracer affinity (protein titration for tracer KD)” value at LC3A (buffer lacking detergent) and on LC3B (buffer lacking detergent) was “nanomolar” throughout.
